Reference: patent EP1611112B1, “ISOXAZOLE COMPOUNDS AS INHIBITORS OF HEAT SHOCK PROTEINS” (Vernalis (Cambridge) Limited, priority 2003, dated 2004)
Counter-ions that a name gives are not always drawn.

Biological target: T1, human full-length HSP90 (Homo sapiens, UniProt P08238)
T1 construct: E. coli expressed human full-length HSP90 protein; made in house; host or cells: E. coli
Assay: Fluorescence Polarisation Assay (displacement of fluorescein-labelled probe RBT0045864-FAM)
Format: binding
Conditions: Fluorescence Polarisation Assay, activity range
Excerpt: A Fluorescence Polarization_assay was also employed for the evaluation of some of the compounds of the Examples:
Fluorescence polarization {also known as fluorescence anisotropy} measures the rotation of a fluorescing species in solution, where the larger molecule the more polarized the fluorescence emission.
When the fluorophore is excited with polarized light, the emitted light is also polarized. The molecular size is proportional to the polarization of the fluorescence emission.
Test compound is added to the assay plate, left to equilibrate and the anisotropy measured again. Any change in anisotropy is due to competitive binding of compound to HSP90, thereby releasing probe.
Stored at room temperature. • 3) BSA (bovine serum albumen) 10 mg/ml (New England Biolabs # B9001S) • 4) 20 mM probe in 100 % DMSO stock concentration. Stored in the dark at RT. Working concentration is 200 nM diluted in AR water and stored at 4 °C.
1) Add 100µl 1x buffer to wells 11A and 12A (=FP BLNK) 2) Prepare assay mix - all reagents are kept on ice with a lid on the bucket as the probe is light-sensitive.
This gives 2.5 mM {50x} stock cpd - assuming cpds 20 mM. • 4) Repeat for wells A2 to A10. Control in columns 11 and 12. • 5) Transfer 5 µl from row A to row B- not column 12. Mix well. • 6) Transfer 5 µl from row B to row C. […] Add 2 µl of 100mM standard cpd to wells B12 - H12 {is positive control } • 13)The Z' factor is calculated from zero controls and positive wells.

T1 sequence (P08238 whole entry): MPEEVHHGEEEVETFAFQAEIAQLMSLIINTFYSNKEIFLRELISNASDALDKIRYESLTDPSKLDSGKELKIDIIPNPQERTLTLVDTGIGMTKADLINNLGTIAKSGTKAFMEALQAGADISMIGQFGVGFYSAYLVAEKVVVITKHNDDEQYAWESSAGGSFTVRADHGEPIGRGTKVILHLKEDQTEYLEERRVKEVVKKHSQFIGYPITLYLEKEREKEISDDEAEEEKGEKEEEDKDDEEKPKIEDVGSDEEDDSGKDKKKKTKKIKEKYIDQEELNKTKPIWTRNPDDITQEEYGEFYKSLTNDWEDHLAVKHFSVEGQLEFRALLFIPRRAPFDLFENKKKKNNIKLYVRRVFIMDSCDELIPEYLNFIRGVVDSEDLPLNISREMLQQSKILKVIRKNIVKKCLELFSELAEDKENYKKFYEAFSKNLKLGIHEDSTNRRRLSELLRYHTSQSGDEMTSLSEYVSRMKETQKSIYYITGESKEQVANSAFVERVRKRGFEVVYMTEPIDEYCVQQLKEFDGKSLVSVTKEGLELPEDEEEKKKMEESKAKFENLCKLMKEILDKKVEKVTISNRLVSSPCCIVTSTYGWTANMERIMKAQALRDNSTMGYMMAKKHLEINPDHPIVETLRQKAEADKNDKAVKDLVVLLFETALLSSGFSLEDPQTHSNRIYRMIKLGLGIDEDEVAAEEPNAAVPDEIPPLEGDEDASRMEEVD

Row | SMILES | IC50
1 | CCNC(=O)c1noc(-c2cc(Cl)c(O)cc2O)c1-c1ccc(OC)cc1 [Example 25, 5-(5-chloro-2,4-dihydroxyphenyl)-4-(4-methoxy-phenyl)-isoxazole-3-carboxylic acid ethylamide] | < 10 µM
2 | CCNC(=O)c1noc(-c2cc(Cl)c(O)cc2O)c1-c1ccc(N2CCNCC2)cc1 [Example 26] | < 10 µM
3 | CCNC(=O)c1noc(-c2cc(Cl)c(O)cc2O)c1-c1ccc(F)cc1 [Example 27] | < 10 µM
4 | Cc1noc(-c2cc(Cl)c(O)cc2O)c1-c1cccc(CN2CCOCC2)c1 [Example 28, 4-Chloro-6-[3-methyl-4-(3-morpholin-4-ylmethyl-phenyl)-isoxazol-5-yl]-benzene-1,3-diol] | < 10 µM
5 | Cc1noc(-c2cc(Cl)c(O)cc2O)c1-c1cccc(CN2CCC(C(N)=O)CC2)c1 [Example 29, 1-{3-[5-(5-Chloro-2,4-dihydroxy-phenyl)-3-methyl-isoxazol-4-yl]-benzyl}-piperidine-4-carboxylic acid amide] | < 10 µM
6 | CC(=O)Nc1cccc(-c2c(C)noc2-c2cc(Cl)c(O)cc2O)c1 [Example 30] | < 10 µM
7 | CCNC(=O)c1noc(-c2cc(Cl)c(O)cc2O)c1-c1cccc(N2CCN(C)CC2)c1 [Example 31, 5-(5-Chloro-2,4-dihydroxy-phenyl)-4-[3-(4-methyl-piperazin-1-yl)-phenyl]-isoxazole-3-carboxylic acid ethylamide] | < 10 µM
8 | CCNC(=O)c1noc(-c2cc(Cl)c(O)cc2O)c1-c1ccc2ccccc2c1 [Example 32] | < 10 µM
9 | CCNC(=O)c1noc(-c2cc(Cl)c(O)cc2O)c1-c1ccc2ncccc2c1 [Example 33] | < 10 µM
10 | CCNC(=O)c1noc(-c2cc(Cl)c(O)cc2O)c1-c1cccnc1 [Example 34] | < 10 µM
11 | CCNC(=O)c1noc(-c2cc(Cl)c(O)cc2O)c1-c1cccc2ccccc12 [Example 35] | < 10 µM
12 | CCNC(=O)c1noc(-c2cc(Cl)c(O)cc2O)c1-c1ccc(N2CCN(C)CC2)cc1 [Example 36] | < 10 µM
13 | CCNC(=O)c1noc(-c2cc(Cl)c(O)cc2O)c1-c1ccc(CNCCS(C)(=O)=O)cc1 [Example 37] | < 10 µM
14 | CCNC(=O)c1noc(-c2cc(Cl)c(O)cc2O)c1-c1ccc(CN2CCS(=O)(=O)CC2)cc1 [Example 38] | < 10 µM
15 | CCNCc1noc(-c2cc(Cl)c(O)cc2O)c1-c1ccc(OC)cc1 [Example 40] | < 10 µM
16 | CCNC(=O)c1noc(-c2cc(Cl)c(O)cc2O)c1-c1ccc(CN2CCOCC2)cc1 [Example 41, 5-(5-Chloro-2,4-dihydroxy-phenyl)-4-(4-morpholin-4-ylmethyl-phenyl)-isoxazole-3-carboxylic acid ethylamide] | < 10 µM
17 | CNC(=O)c1noc(-c2cc(Cl)c(O)cc2O)c1-c1ccc(CN2CCCCC2)cc1 [Example 41c] | < 10 µM
18 | CCNC(=O)c1noc(-c2cc(Cl)c(O)cc2O)c1-c1ccc(C(C)N2CCOCC2)cc1 (stereo not drawn) [Example 42] | < 10 µM

Row | SMILES | IC50
19 | CCNC(=O)c1noc(-c2cc(Cl)c(O)cc2O)c1-c1cccc(C(C)N2CCOCC2)c1 (stereo not drawn) [Example 44] | < 10 µM
20 | CCNC(=O)c1noc(-c2cc(Cl)c(O)cc2O)c1-c1cccc(CN2CCOCC2)c1 [Example 45] | < 10 µM
21 | CCNC(=O)c1noc(-c2cc(Cl)c(O)cc2O)c1-c1ccc(CN2CCN(C)CC2)cc1 [Example 47] | < 10 µM
22 | CCNC(=O)c1noc(-c2cc(Cl)c(O)cc2O)c1-c1cccc(CN2CCN(C)CC2)c1 [Example 48] | < 10 µM
23 | CCNC(=O)c1noc(-c2cc(Cl)c(O)cc2O)c1-c1ccc(CN(CC)CC)cc1 [Example 49] | < 10 µM
24 | CCNC(=O)c1noc(-c2cc(Cl)c(O)cc2O)c1-c1ccc(CN2CCC(CO)CC2)cc1 [Example 50] | < 10 µM
25 | CCNC(=O)c1noc(-c2cc(Cl)c(O)cc2O)c1-c1ccc(CN2CCC(CCO)CC2)cc1 [Example 51] | < 10 µM
26 | CCNC(=O)c1noc(-c2cc(Cl)c(O)cc2O)c1-c1ccc(CN2CCC(O)CC2)cc1 [Example 53] | < 10 µM
27 | CCNC(=O)c1noc(-c2cc(CC)c(O)cc2O)c1-c1ccc(CN2CCOCC2)cc1 [Example 55] | < 10 µM
28 | CCNC(=O)c1noc(-c2cc(CC)c(O)cc2O)c1-c1ccc(CN2CCCCC2)cc1 [Example 56] | < 10 µM
29 | CCNC(=O)c1noc(-c2cc(CC)c(O)cc2O)c1-c1ccc(CN2CCN(C)CC2)cc1 [Example 57] | < 10 µM
30 | CCNC(=O)c1noc(-c2cc(Cl)c(O)cc2O)c1-c1ccc(CNCc2cccnc2)cc1 [Example 58] | < 10 µM
31 | CCNC(=O)c1noc(-c2cc(Cl)c(O)cc2O)c1-c1ccc(CN(C)C)cc1 [Example 59] | < 10 µM
32 | CCNC(=O)c1noc(-c2cc(Cl)c(O)cc2O)c1-c1cccc(CN2CCN(C(C)=O)CC2)c1 [Example 62] | < 10 µM
33 | CCNC(=O)c1noc(-c2cc(Cl)c(O)cc2O)c1-c1ccc(F)c(CN2CCN(C(C)=O)CC2)c1 [Example 63] | < 10 µM
34 | CCNC(=O)c1noc(-c2cc(Cl)c(O)cc2O)c1-c1ccc(F)c(CN2CCOCC2)c1 [Example 64] | < 10 µM
35 | CCNC(=O)c1noc(-c2cc(CCc3ccccc3)c(O)cc2O)c1-c1ccc(CN2CCOCC2)cc1 [Example 65, 5-(2,4-dihydroxy-5-phenethyl-phenyl)-4-(4-morpholin-4-ylmethylphenyl)-isoxazole-3-carboxylic acid ethylamide hydrochloride] | < 10 µM
36 | CCNC(=O)c1noc(-c2cc(-c3ccccc3)c(O)cc2O)c1-c1ccc(F)cc1 [Example 67] | < 10 µM

Continued, values first:

Row | IC50 | SMILES
37 | < 10 µM | CCNC(=O)c1noc(-c2cc(Cl)c(O)cc2O)c1Br [Example 27a]
38 | < 10 µM | CCNC(=O)c1noc(-c2cc(Cl)c(O)cc2O)c1-c1ccc(CNCc2ccoc2)cc1 [Example 41a]
39 | < 10 µM | CCNC(=O)c1noc(-c2cc(CC)c(O)cc2O)c1-c1ccc(CN(CC)CC)cc1 [Example 41b]
40 | < 10 µM | CCNC(=O)c1noc(-c2cc(Cl)c(O)cc2O)c1-c1ccc(F)cc1F [Example 41e]
41 | < 10 µM | CCNC(=O)c1noc(-c2cc(Cl)c(O)cc2O)c1-c1ccc(CN2CCOCC2)c(F)c1 [Example 41g]
42 | < 10 µM | NC(=O)c1noc(-c2cc(Cl)c(O)cc2O)c1-c1ccc(CN2CCCCC2)cc1 [Example 41h]
43 | < 10 µM | CCNC(=O)c1noc(-c2cc(Cl)c(O)cc2O)c1-c1ccc(CN2CCCCC2)cc1C [Example 41i]
44 | < 10 µM | CCNC(=O)c1noc(-c2cc(Cl)c(O)cc2O)c1-c1ccc(CN2CCOCC2)cc1C [Example 41j]
45 | < 10 µM | CCNC(=O)c1noc(-c2cc(Cl)c(O)cc2O)c1-c1ccccc1CN1CCOCC1 [Example 41m]
46 | < 10 µM | CCNC(=O)c1noc(-c2cc(Cl)c(O)cc2O)c1-c1ccc(CO)cc1 [Example 41n]
47 | < 10 µM | CC(C)NC(=O)c1noc(-c2cc(Cl)c(O)cc2O)c1-c1ccc(CN2CCCCC2)cc1 [Example 41p]
48 | < 10 µM | CCNC(=O)c1noc(-c2cc(Cl)c(O)cc2O)c1-c1ccc(OCCN(CC)CC)cc1 [Example 41q]
49 | < 10 µM | CCNC(=O)c1noc(-c2cc(Cl)c(O)cc2O)c1-c1ccc(CN2CCCCC2)c2ccccc12 [Example 41r]
50 | < 10 µM | CCNC(=O)c1noc(-c2cc(Cl)c(O)cc2O)c1-c1ccccc1CN1CCN(C)CC1 [Example 41s]

Same assay, conditions: Fluorescence Polarisation Assay, key in footnote of the table

Row | IC50 | SMILES
51 | < 10 µM | COc1ccc(-c2c(C)noc2-c2cc(C#N)c(O)cc2O)cc1 [Example 12b]
